Data from patent US4775674A, “Imidazoquinolinylether derivatives useful as phosphodiesterase and blood aggregation inhibitors” (Bristol-Myers Company, priority 1986, dated 1988).
Converted amounts (≈) assume the structure as drawn. Read-outs that look alike come from different tables or passages of the source.

What was measured:
[1] = tested on: platelet aggregation (Ex Vivo vs. ADP); test: Inhibition of platelet aggregation following oral administration (Ex vivo); format: in vivo; settings: Rattus norvegicus, rats, oral by gavage, 2 hours after dosing
Procedure: This test is sometimes referred to in the art as an Ex vivo method and was initially described by Fleming, et al., Arch. Int. Pharmacodyn. Ther., 199, 164 (1972). Briefly, the assay is essentially carried out as follows.
Aggregometry is performed in vitro as previously described on platelet rich plasma samples obtained from rats dosed with either test compounds or the vehicle. In all cases, activity is determined 2 hours after the drug is administered orally at various doses by gavage as a suspension in […] plus a few drops of Tween 20.

[2] = tested on: ferrets (right ventricular contractile force, blood pressure); test: In vivo inotropic activity in ferrets; design: species or system ferret; settings: Mustela putorius, 1 h, intraduodenal
Procedure: This test is carried out in ferrets as follows. Fasted anesthetized ferrets are instrumented to study hemodynamic parameters as well as right ventricular contractile force (RVCF) using a Walton-Brodie open strain guage arch. Drugs are administered intraduodenally as solutions in DMSO (1 mL or less) and effects on myocardial contractile force and other parameters are monitored for 60 minutes after dosing. Changes in contractile force in response to drug treatment are expressed in terms of percent change from predose control.

[3] = tested on: collagen-induced platelet aggregation; test: In vitro inhibition of platelet aggregation, collagen-induced (rabbit platelet rich plasma); format: cell-based; settings: Oryctolagus cuniculus, collagen suspension 0.05 ml, read-out: Platelet Inhibition In Vitro - Rabbit PRP EC50 vs. collagen
Procedure: (§1) The aggregometer method of Born (1), as modified by Mustard, et al. (2) was used to assess the in vitro activity of the various compounds as to inhibition of adenosine diphosphate (ADP) and collagen-induced platelet aggregation. Platelet rich plasma (PRP) was separated by centrifugation from citrated (3.8 percent) rabbit blood. […] The various compounds tested were dissolved in dimethylsulfoxide (DMSO) so that 5 mcl added to the platelet rich plasma would yield the desired test concentration. Vehicle control trials were done and compared with aggregation induced in platelet rich plasma containing various concentrations of the test compounds. Dose response curves were obtained and Effective Concentration (EC50) values calculated.

[4] = molecular target: T1, cAMP phosphodiesterase (human platelets) (Homo sapiens, UniProt Q14432); test: Inhibition of cyclic AMP phosphodiesterase; format: biochemical; settings: PDE from human platelets
T1 construct: enzynme obtained from human platelets; from tissue; host or cells: human platelets
Procedure: This assay is carried out essentially as described by Thompson, et al., Methods in Enzymology, 38, 205-212 (1974). Briefly, tritium labeled cyclic adenosine monophosphate (cAMP) is incubated with a phosphodiesterase (PDE) enzynme obtained from human platelets which converts a portion of the cAMP to 5'AMP in culture tubes. This reaction is terminated by submerging the tubes in a boiling water bath after which they are placed on ice and an aliquot of snake venom is added to each tube. This, during a second incubation, converts the 5'AMP to adenosine. Ion exchange resin is added to bind the remaining cyclic AMP. The tubes are centrifuged to sediment the resin and a portion of the clear supernatent (which contains radioactive adenosine) is counted in a liquid scintillation counter. The cAMP phosphodiesterase inhibition activity of a test agent is determined by pre-incubating the PDE enzyme preparation with the test agent.

[5] = tested on: adenosine diphosphate (ADP)-induced platelet aggregation; test: In vitro inhibition of platelet aggregation, ADP-induced (rabbit platelet rich plasma); format: cell-based; settings: Oryctolagus cuniculus, ADP 0.5 mcg/ml, read-out: Platelet Inhibition In Vitro - Rabbit PRP EC50 vs. ADP
Procedure: as §1

[6] = anesthetized ferret, 3 mg/kg, 60 minutes, vs predose control, read-out: Maximum Percentage Change Right Ventricular Contractile Force (RVCF)
[7] = anesthetized ferret, 3 mg/kg, 60 minutes, read-out: Maximum Percentage Change Blood Pressure

T1 sequence (Q14432 whole entry): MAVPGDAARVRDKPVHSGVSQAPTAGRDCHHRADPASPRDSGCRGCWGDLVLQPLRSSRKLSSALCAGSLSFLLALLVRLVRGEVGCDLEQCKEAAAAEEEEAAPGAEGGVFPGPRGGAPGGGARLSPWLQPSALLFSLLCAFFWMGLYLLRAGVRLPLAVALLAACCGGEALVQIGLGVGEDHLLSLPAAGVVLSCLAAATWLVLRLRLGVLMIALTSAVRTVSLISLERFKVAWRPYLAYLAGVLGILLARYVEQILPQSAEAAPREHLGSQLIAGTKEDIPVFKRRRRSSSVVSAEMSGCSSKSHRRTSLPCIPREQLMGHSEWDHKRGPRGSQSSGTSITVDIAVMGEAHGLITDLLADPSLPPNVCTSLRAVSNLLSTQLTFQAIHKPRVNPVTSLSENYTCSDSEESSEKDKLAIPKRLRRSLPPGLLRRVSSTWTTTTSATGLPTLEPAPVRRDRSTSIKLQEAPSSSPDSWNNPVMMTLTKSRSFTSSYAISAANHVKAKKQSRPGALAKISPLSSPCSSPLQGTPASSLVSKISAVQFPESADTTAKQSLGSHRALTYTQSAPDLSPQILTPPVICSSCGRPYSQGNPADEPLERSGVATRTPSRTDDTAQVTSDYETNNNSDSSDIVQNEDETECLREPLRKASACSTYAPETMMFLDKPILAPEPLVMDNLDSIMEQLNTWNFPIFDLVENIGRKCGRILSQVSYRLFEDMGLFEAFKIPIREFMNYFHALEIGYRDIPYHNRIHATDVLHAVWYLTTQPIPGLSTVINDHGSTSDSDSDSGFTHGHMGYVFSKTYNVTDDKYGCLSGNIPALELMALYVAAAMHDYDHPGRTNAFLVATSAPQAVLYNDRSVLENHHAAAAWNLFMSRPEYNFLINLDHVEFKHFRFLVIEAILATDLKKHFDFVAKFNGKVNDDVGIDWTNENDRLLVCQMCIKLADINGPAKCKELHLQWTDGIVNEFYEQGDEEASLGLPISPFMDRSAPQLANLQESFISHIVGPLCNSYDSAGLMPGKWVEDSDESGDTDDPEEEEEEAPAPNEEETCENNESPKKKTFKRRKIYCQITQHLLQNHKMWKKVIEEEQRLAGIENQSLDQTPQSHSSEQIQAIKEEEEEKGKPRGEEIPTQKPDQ

| SMILES | change in vivo at 3 mg/kg [2, 6] [%] | change in vivo at 3 mg/kg [2, 7] [%] | EC50 [3] [µg/mL] | IC50 [4] [µM] | EC50 [5] [µg/mL] | further results |
| --- | --- | --- | --- | --- | --- | --- |
| O=C(O)CCCOc1ccc2nc3[nH]c(=O)[nH]c3cc2c1 [Example 4, 4-[(2,3-Dihydro-2-oxo-1H-imidazo[4,5-b]quinolin-7-yl)oxy]butanoic Acid] | 3 ± 5 | -3 ± 2 | – | – | – | ED50 [1]: 3.4 mg/kg |
| Cn1c(=O)[nH]c2nc3ccc(OCCCC(=O)O)cc3cc21 [Example 6, 4-[(2,3-Dihydro-1-methyl-2-oxo-1H-imidazo[4,5-b]quinolin-7-yl)oxy]butanoic Acid] | – | – | > 32 | 0.6 | > 32 | – |
| O=C(O)COc1ccc2[nH]c3nc(O)nc-3cc2c1 [Example 7, 2-[(1,3-Dihydro-2-oxo-2H-imidazo[4,5-b]quinolin-7-yl)oxy]acetic Acid] | – | – | – | 0.07 | – | – |
| O=C(O)CCCCOc1ccc2nc3[nH]c(=O)[nH]c3cc2c1 [Example 8, 5-[(2,3-Dihydro-2-oxo-1H-imidazo[4,5-b]quinolin-7-yl)oxy]pentanoic Acid] | – | – | > 32 | – | > 32 | – |
| Cn1c(O)nc2nc3ccc(OCCCCC(=O)O)cc3cc21 [Example 9, 5-[(2,3-Dihydro-1-methyl-2-oxo-1H-imidazo[4,5-b]quinolin-7-yl)oxy]pentanoicAcid] | – | – | > 32 | 0.8 | > 32 | – |
| COC(=O)CCCOc1ccc2nc3[nH]c(=O)n(C)c3cc2c1 [Example 11, Methyl 4-[(2,3-Dihydro-1-methyl-2-oxo-1H-imidazo[4,5-b]quinolin-7-yl)oxy]butanoat] | -10 | -4 | – | – | – | ED50 [1]: 15.7 mg/kg |
| CCOC(=O)COc1ccc2nc3[nH]c(=O)[nH]c3cc2c1 [Example 12, Ethyl [(2,3-Dihydro-2-oxo-1H-imidazo[4,5-b]quinolin-7-yl)oxy]acetate] | – | – | 2.5 (≈ 8.7 µM) | – | 8 (≈ 27.8 µM) | – |
| COC(=O)CCCCOc1ccc2nc3[nH]c(=O)[nH]c3cc2c1 [Example 13, Methyl 5-[(2,3-Dihydro-2-oxo-1H-imidazo[4,5-b]quinolin-7-yl)oxy]pentanoate] | – | – | – | – | 0.3 (≈ 0.951 µM) | – |
| COC(=O)CCCCOc1ccc2nc3nc(O)n(C)c3cc2c1 [Example 14, Methyl 5-[(2,3-Dihydro-1-methyl-2-oxo 1H-imidazo[4,5-b]quinolin-7-yl)oxy]pentanoate] | – | – | – | 5 | 3 (≈ 9.11 µM) | – |
| O=C(CCCOc1ccc2nc3[nH]c(=O)[nH]c3cc2c1)N1CCOCC1 [Example 15] | 2 | -5 | 0.007 (≈ 0.0196 µM) | – | – | – |
| O=C(CCCOc1ccc2nc3[nH]c(=O)[nH]c3cc2c1)NC1CCCCC1 [Example 18, N-Cyclohexyl-4-[(2,3-dihydro-2-oxo-1H-imidazo[4,5-b]quinolin-7-yl)oxy]butanamide] | 5 | -8 | 0.0025 (≈ 0.00679 µM) | – | 0.015 (≈ 0.0407 µM) | – |
| Cn1c(=O)[nH]c2nc3ccc(OCCCC(=O)NC4CCCCC4)cc3cc21 [Example 19, N-Cyclohexyl-4-[(2,3-dihydro-1-methyl-2-oxo 1H-imidazo[4,5-b]quinolin-7-yl)oxy]butanamide] | – | – | 0.009 (≈ 0.0235 µM) | 0.7 | 0.07 (≈ 0.183 µM) | ED50 [1]: 8.3 mg/kg |
| CN(C(=O)CCCOc1ccc2nc3[nH]c(=O)[nH]c3cc2c1)C1CCCCCC1 [Example 22, N-Cycloheptyl-N-methyl-4-[(2,3-dihydro-2-oxo-1H-imidazo[4,5-b]quinolin-7-yl)oxy]butanamide] | – | – | 0.002 (≈ 0.00504 µM) | – | 0.007 (≈ 0.0177 µM) | ED50 [1]: 6.2 mg/kg; change in vivo at 0.3 mg/kg ([2]; anesthetized ferret, 60 minutes, vs predose control, read-out: Maximum Percentage Change Right Ventricular Contractile Force (RVCF)): 29 ± 5%; change in vivo at 0.3 mg/kg ([2]; anesthetized ferret, 60 minutes, read-out: Maximum Percentage Change Blood Pressure): -26 ± 4% |
| CN(C(=O)CCCOc1ccc2nc3nc(O)n(C)c3cc2c1)C1CCCCCC1 [Example 23, N-Cycloheptyl-4-[(2,3-dihydro-1-methyl-2-oxo-1H-imidazo[4,5-b]quinolin-7-yl)oxy]-N-methylbutanamide] | 24 | -16 | 0.005 (≈ 0.0122 µM) | 30 | 0.03 (≈ 0.0731 µM) | – |
| O=C(CCCOc1ccc2nc3[nH]c(=O)[nH]c3cc2c1)N1CCCCC1 [Example 24, 1-[4-[(2,3-Dihydro-2-oxo-1H-imidazo[4,5-b]quinolin-7-yl)oxy]-1-oxobutyl]piperidine] | 32 | -19 | – | 0.02 | 0.04 (≈ 0.113 µM) | – |
| Cn1c(=O)[nH]c2nc3ccc(OCCCC(=O)N4CCCCC4)cc3cc21 [Example 25, 1-[4-[(2,3-Dihydro-1-methyl-2-oxo-1H-imidazo[4,5-b]quinolin-7-yl)oxy]-1-oxobutyl]piperidine] | – | – | 0.8 (≈ 2.17 µM) | – | 4 (≈ 10.9 µM) | – |
| O=C(CCCOc1ccc2nc3[nH]c(=O)[nH]c3cc2c1)N1CCN(c2ccccc2)CC1 [Example 26, 1-[4-[(2,3-Dihydro-2-oxo-1H-imidazo[4,5-b]quinolin-7-yl)oxy]-1-oxobutyl]-4-phenylpiperazine] | – | – | 0.009 (≈ 0.0209 µM) | 0.002 | 0.125 (≈ 0.29 µM) | – |
| CN(C(=O)CCCCOc1ccc2nc3nc(O)n(C)c3cc2c1)C1CCCCC1 [Example 27, N-Cyclohexyl-5-[(2,3-dihydro-1-methyl-2-oxo-1H-imidazo[4,5-b]quinolin-7-yl)oxy]N-methylpentanamide] | 35 | -24 | – | 0.5 | 0.06 (≈ 0.146 µM) | – |
| CN(C(=O)CCCCOc1ccc2nc3[nH]c(=O)n(C)c3cc2c1)C1CCCCCC1 [Example 28, N-Cycloheptyl-5-[(2,3-dihydro-1-methyl-2-oxo-1H-imidazo[4,5-b]quinolin-7-yl)oxy]-N-methylpentanamide] | 27 | -12 | – | 0.6 | 0.06 (≈ 0.141 µM) | – |
| CCN(CC)CCOc1ccc2nc3[nH]c(=O)[nH]c3cc2c1 [Example 34, 7-[(2-Diethylamino)ethoxy]-1,3-dihydro-2H-imidazo[4,5-b]quinolin-2-one] | – | – | 0.4 (≈ 1.33 µM) | – | 1.5 (≈ 4.99 µM) | – |
| O=c1[nH]c2cc3cc(OCCCCS(=O)(=O)c4ccccc4)ccc3nc2[nH]1 [Example 35, 7-[4-(Phenylsulfonyl)butoxy]-1,3-dihydro-2H-imidazo[4,5-b]quinolin-2-one] | 11 ± 5 | -10 ± 8 | – | 0.001 | 0.07 (≈ 0.176 µM) | ED50 [1]: 4.3 mg/kg |
| Oc1nc2cc3cc(OCCCCc4nnnn4C4CCCCC4)ccc3[nH]c-2n1 [Example 36, 7-[4-(1-Cyclohexyl-1H-tetrazol-5-yl)butoxy]-1,3-dihydro-2H-imidazo[4,5-b]quinolin-2-one] | – | – | 0.02 (≈ 0.0491 µM) | 0.004 | – | – |
| CC(C)N1CC(COc2ccc3nc4[nH]c(=O)[nH]c4cc3c2)OC1=O (stereo not shown) [Example 41, 1,3-Dihydro-7-[[3-(1-methylethyl)-2-oxo-5-oxazolidinyl]methoxy]-2H-imidazo[4,5-b]quinolin-2-one] | – | – | 7 (≈ 20.4 µM) | 0.06 | 3 (≈ 8.76 µM) | – |
| CC(C)(C)N1CC(COc2ccc3nc4[nH]c(=O)[nH]c4cc3c2)OC1=O (stereo not shown) [Example 42, 7-[[3-(1,1-Dimethylethyl)-2-oxooxazolidin-5-yl]methoxy]-1H-imidazo[4,5-b]quinolin-2(3H)-one] | – | – | 0.4 (≈ 1.12 µM) | 0.07 | 6 (≈ 16.8 µM) | – |
| CC(C)NCC(O)COc1ccc2nc3[nH]c(=O)[nH]c3cc2c1 (stereo not shown) [Example 43, 1,3-Dihydro-7-[2-hydroxy-3-[(1-methylethyl)amino]propoxy]-2H-imidazo[4,5-b]quinolin-2-one] | – | – | > 32 | 0.3 | > 32 | – |
| OCCN(CCO)c1nc(N2CCCCC2)c2nc(N(CCO)CCO)nc(N3CCCCC3)c2n1 [dipyridamole, reference compound] | – | – | – | – | > 512 | ED50 [1]: > 100 mg/kg |
| Cc1[nH]c(=O)c(C#N)cc1-c1ccncc1 [milrinone, reference compound] | – | – | – | – | – | change in vivo at 3 mg/kg ([2]; read-out: Maximum Percentage Change Right Ventricular Contractile Force (RVCF)): 52% |
